The molecules below were run against factor B (Homo sapiens, UniProt P00751) (assay: factor B inhibition assay of Biological Example 1). Conditions: IC50 (nM), assay of Biological Example 1 (Table 1).
Type: biochemical
Design: CVF-Bb complex prepared from purified cobra venom factor (1 μM), recombinant human complement factor B; made in house; host or cells: drosophila cells (factor B); E. coli (factor D used to form the complex)

Sequence of factor B (P00751 260-764 limits assumed): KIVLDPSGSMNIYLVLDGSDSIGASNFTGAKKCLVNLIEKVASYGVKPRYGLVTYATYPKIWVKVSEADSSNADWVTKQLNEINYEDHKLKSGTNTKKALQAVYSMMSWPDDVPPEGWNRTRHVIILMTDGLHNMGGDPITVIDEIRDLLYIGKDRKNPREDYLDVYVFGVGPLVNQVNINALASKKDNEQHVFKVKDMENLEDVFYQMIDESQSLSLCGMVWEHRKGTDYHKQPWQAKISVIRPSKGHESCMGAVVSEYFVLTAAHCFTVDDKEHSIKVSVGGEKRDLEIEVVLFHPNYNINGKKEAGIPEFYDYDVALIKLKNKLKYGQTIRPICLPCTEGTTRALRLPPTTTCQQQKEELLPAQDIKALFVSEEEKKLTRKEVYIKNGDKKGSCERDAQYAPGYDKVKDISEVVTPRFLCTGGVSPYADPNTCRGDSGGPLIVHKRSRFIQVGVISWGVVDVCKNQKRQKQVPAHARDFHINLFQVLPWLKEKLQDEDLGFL
Sequence of factor B (Q91132 23-649 partner limits assumed): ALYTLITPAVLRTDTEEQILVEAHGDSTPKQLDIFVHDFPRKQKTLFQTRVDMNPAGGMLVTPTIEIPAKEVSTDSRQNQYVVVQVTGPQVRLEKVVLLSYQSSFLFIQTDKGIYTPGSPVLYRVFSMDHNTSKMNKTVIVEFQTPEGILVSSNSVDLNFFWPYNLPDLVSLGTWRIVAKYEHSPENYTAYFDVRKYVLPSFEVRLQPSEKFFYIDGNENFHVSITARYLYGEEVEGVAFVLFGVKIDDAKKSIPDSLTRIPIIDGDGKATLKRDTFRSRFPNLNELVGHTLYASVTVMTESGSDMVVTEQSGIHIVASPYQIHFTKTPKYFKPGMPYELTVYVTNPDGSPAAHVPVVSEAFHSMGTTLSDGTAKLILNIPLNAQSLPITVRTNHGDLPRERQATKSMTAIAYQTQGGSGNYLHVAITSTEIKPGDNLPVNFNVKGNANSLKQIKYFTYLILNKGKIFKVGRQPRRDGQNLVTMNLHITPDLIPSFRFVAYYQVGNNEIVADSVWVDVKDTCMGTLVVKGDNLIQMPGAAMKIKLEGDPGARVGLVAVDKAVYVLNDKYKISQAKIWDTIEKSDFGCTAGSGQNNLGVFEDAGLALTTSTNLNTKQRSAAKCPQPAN
Sequence of factor B (Q91132 733-984 partner limits assumed): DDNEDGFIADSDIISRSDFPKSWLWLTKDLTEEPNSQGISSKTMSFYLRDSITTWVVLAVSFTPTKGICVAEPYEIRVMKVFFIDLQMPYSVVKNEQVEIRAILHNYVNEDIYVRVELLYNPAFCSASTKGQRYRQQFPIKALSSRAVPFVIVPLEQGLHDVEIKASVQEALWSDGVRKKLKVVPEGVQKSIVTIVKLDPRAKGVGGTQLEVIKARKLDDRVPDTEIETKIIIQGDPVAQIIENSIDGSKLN
Sequence of factor B (Q91132 1264-1642 partner limits assumed): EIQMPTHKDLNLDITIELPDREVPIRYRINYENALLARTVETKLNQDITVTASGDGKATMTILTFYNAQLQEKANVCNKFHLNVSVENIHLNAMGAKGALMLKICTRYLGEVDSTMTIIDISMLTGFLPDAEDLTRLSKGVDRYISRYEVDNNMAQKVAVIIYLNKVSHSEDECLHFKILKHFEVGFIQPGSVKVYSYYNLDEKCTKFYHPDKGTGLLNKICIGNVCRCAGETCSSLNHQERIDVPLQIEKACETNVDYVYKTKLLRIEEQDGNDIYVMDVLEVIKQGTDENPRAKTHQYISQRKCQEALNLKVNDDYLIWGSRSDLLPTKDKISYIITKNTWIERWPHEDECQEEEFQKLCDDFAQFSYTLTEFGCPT

Row | SMILES | IC50 [nM]
1 | COc1cc(C)c2[nH]ccc2c1C(N)(c1nc2cc(C#N)ccc2o1)C(F)(F)F (racemic) [Example 130-B, (±)-2-(1-Amino-2,2,2-trifluoro-1-(5-methoxy-7-methyl-1H-indol-4-yl)ethyl)benzo[d]oxazole-5-carbonitrile] | 20
2 | COc1cc(C)c2[nH]ccc2c1C(O)c1nc2ccc(C#N)cc2s1 (racemic) [Example 132-B, (±)-2-(hydroxy(5-methoxy-7-methyl-1H-indol-4-yl)methyl)benzo[d]thiazole-6-carbonitrile] | 70
3 | COc1cc(C)c2[nH]ccc2c1C(O)c1cc2ccc(C#N)cc2o1 (racemic) [Example 133-B, (±)-2-(hydroxy(5-methoxy-7-methyl-1H-indol-4-yl)methyl)benzofuran-6-carbonitrile] | 100
4 | COc1cc(C)c2[nH]ccc2c1C(O)c1cc2cc(C#N)ccc2o1 (racemic) [Example 134, (±)-2-(hydroxy(5-methoxy-7-methyl-1H-indol-4-yl)methyl)benzofuran-5-carbonitrile] | 90
5 | COc1cc(C)c2[nH]ccc2c1C(O)c1cc2ccc(C#N)cc2[nH]1 (racemic) [Example 135-C, (±)-2-(hydroxy(5-methoxy-7-methyl-1H-indol-4-yl)methyl)-1H-indole-6-carbonitrile] | 20
6 | COc1cc(C)c2[nH]ccc2c1C(O)c1cc2cc(C#N)ccc2[nH]1 (racemic) [Example 136, (±)-2-(hydroxy(5-methoxy-7-methyl-1H-indol-4-yl)methyl)-1H-indole-5-carbonitrile] | 20
7 | Cc1cc(S(C)(=O)=O)c(C(C)(O)c2nc3cc(C#N)ccc3[nH]2)c2cc[nH]c12 (single isomer, unassigned) [11-C b) (tr = 3 min), (+) or (−)-2-(1-hydroxy-1-(7-methyl-5-(methylsulfonyl)-1H-indol-4-yl)ethyl)-1H-benzo[d]imidazole-5-carbonitrile] | 90
8 | Cc1cc(S(C)(=O)=O)c(C(C)(O)c2nc3cc(C#N)ccc3[nH]2)c2cc[nH]c12 (single isomer, unassigned) [11-C b) (tr = 4.2 min), (−) or (+)-2-(1-hydroxy-1-(7-methyl-5-(methylsulfonyl)-1H-indol-4-yl)ethyl)-1H-benzo[d]imidazole-5-carbonitrile] | 1020
9 | Cc1cc(S(C)(=O)=O)c(C(N)c2nc3cc(C#N)ccc3[nH]2)c2cc[nH]c12 (single isomer, unassigned) [18-D (+), 2-(amino(7-methyl-5-(methylsulfonyl)-1H-indol-4-yl)methyl)-1H-benzo[d]imidazole-5-carbonitrile] | 1240
10 | Cc1cc(S(C)(=O)=O)c(C(N)c2nc3cc(C#N)ccc3[nH]2)c2cc[nH]c12 (single isomer, unassigned) [18-D (−), 2-(amino(7-methyl-5-(methylsulfonyl)-1H-indol-4-yl)methyl)-1H-benzo[d]imidazole-5-carbonitrile] | 150
11 | CCOc1cc(C)c2[nH]ccc2c1C(O)(c1nc2cc(C#N)ccc2[nH]1)C(F)(F)F (single isomer, unassigned) [33-C b) (tr = 3 min), 2-(1-(5-ethoxy-7-methyl-1H-indol-4-yl)-2,2,2-trifluoro-1-hydroxyethyl)-1H-benzo[d]imidazole-5-carbonitrile] | 490
12 | CCOc1cc(C)c2[nH]ccc2c1C(O)(c1nc2cc(C#N)ccc2[nH]1)C(F)(F)F (single isomer, unassigned) [33-C b) (tr = 5.1 min), 2-(1-(5-ethoxy-7-methyl-1H-indol-4-yl)-2,2,2-trifluoro-1-hydroxyethyl)-1H-benzo[d]imidazole-5-carbonitrile] | 5380
13 | COc1cc(C)c2[nH]ccc2c1C(N)c1nc2cc(C#N)ccc2[nH]1 (single isomer, unassigned) [39-C b) (tr = 24.1 min), (−) or (+)-2-(amino(5-methoxy-7-methyl-1H-indol-4-yl)methyl)-1H-benzo[d]imidazole-5-carbonitrile] | 8
14 | COc1cc(C)c2[nH]ccc2c1C(N)c1nc2cc(C#N)ccc2[nH]1 (single isomer, unassigned) [39-C b) (tr = 30.6 min), (+) or (−)-2-(amino(5-methoxy-7-methyl-1H-indol-4-yl)methyl)-1H-benzo[d]imidazole-5-carbonitrile] | 190
15 | Cc1cc(Br)c(C(C)(O)c2nc3cc(C#N)ccc3[nH]2)c2cc[nH]c12 (single isomer, unassigned) [79-F b) (tr = 2.2 min), (+) or (−)-2-(1-(5-bromo-7-methyl-1H-indol-4-yl)-1-hydroxyethyl)-1H-benzo[d]imidazole-5-carbonitrile] | 60
16 | Cc1cc(Br)c(C(C)(O)c2nc3cc(C#N)ccc3[nH]2)c2cc[nH]c12 (single isomer, unassigned) [79-F b) (tr = 3.8 min), (−) or (+)-2-(1-(5-bromo-7-methyl-1H-indol-4-yl)-1-hydroxyethyl)-1H-benzo[d]imidazole-5-carbonitrile] | 270
17 | Cc1cc(C)c2[nH]cc3c2c1C(O)(c1nc2cc(C#N)ccc2[nH]1)CC3 (single isomer, unassigned) [93-F b) (tr = 7.2 min), (+) or (−)-2-(5-hydroxy-6,8-dimethyl-1,3,4,5-tetrahydrobenzo[cd]indol-5-yl)-1H-benzo[d]imidazole-5-carbonitrile] | 33800
18 | Cc1cc(C)c2[nH]cc3c2c1C(O)(c1nc2cc(C#N)ccc2[nH]1)CC3 (single isomer, unassigned) [93-F b) (tr = 10.2 min), (−) or (+)-2-(5-hydroxy-6,8-dimethyl-1,3,4,5-tetrahydrobenzo[cd]indol-5-yl)-1H-benzo[d]imidazole-5-carbonitrile] | 950
19 | CCc1cc(C)c2[nH]cc3c2c1C(O)(c1nc2cc(C#N)ccc2[nH]1)CC3 (single isomer, unassigned) [94 b) (tr = 4.5 min), (+) or (−)-2-(6-ethyl-5-hydroxy-8-methyl-1,3,4,5-tetrahydrobenzo[cd]indol-5-yl)-1H-benzo[d]imidazole-5-carbonitrile] | 400
20 | CCc1cc(C)c2[nH]cc3c2c1C(O)(c1nc2cc(C#N)ccc2[nH]1)CC3 (single isomer, unassigned) [94 b) (tr = 6.3 min), (−) or (+)-2-(6-ethyl-5-hydroxy-8-methyl-1,3,4,5-tetrahydrobenzo[cd]indol-5-yl)-1H-benzo[d]imidazole-5-carbonitrile] | 1590
21 | Cc1cc(C(C)C)c(C(N)c2nc3cc(C#N)ccc3[nH]2)c2cc[nH]c12 (single isomer, unassigned) [97 b) (tr = 10.5 min), (+) or (−)-2-(amino(5-isopropyl-7-methyl-1H-indol-4-yl)methyl)-1H-benzo[d]imidazole-5-carbonitrile] | 3810
22 | Cc1cc(C(C)C)c(C(N)c2nc3cc(C#N)ccc3[nH]2)c2cc[nH]c12 (single isomer, unassigned) [97 b) (tr = 19.4 min), (−) or (+)-2-(amino(5-isopropyl-7-methyl-1H-indol-4-yl)methyl)-1H-benzo[d]imidazole-5-carbonitrile] | 70
23 | Cc1cc(C)c2[nH]cc(-c3ccccc3)c2c1C(O)c1nc2cc(C#N)ccc2[nH]1 (single isomer, unassigned) [118-C b) (tr = 4.6 min), (+)- or (−)-2-((5,7-dimethyl-3-phenyl-1H-indol-4-yl)(hydroxy)methyl)-1H-benzo[d]imidazole-5-carbonitrile] | 30
24 | Cc1cc(C)c2[nH]cc(-c3ccccc3)c2c1C(O)c1nc2cc(C#N)ccc2[nH]1 (single isomer, unassigned) [118-C b) (tr = 7.9 min), (−) or (+)-2-((5,7-dimethyl-3-phenyl-1H-indol-4-yl)(hydroxy)methyl)-1H-benzo[d]imidazole-5-carbonitrile] | 1750
25 | Cc1cc(C)c2[nH]cc(-c3cnn(C)c3)c2c1C(O)c1nc2cc(C#N)ccc2[nH]1 (single isomer, unassigned) [119 b) (tr = 1.54 min), (+)- or (−)-2-((5,7-dimethyl-3-(1-methyl-1H-pyrazol-4-yl)-1H-indol-4-yl)(hydroxy)methyl)-1H-benzo[d]imidazole-5-carbonitrile] | 130
26 | Cc1cc(C)c2[nH]cc(-c3cnn(C)c3)c2c1C(O)c1nc2cc(C#N)ccc2[nH]1 (single isomer, unassigned) [119 b) (tr = 2.35 min), (−) or (+)-2-((5,7-dimethyl-3-(1-methyl-1H-pyrazol-4-yl)-1H-indol-4-yl)(hydroxy)methyl)-1H-benzo[d]imidazole-5-carbonitrile] | 12600
27 | Cc1cc(C)c2[nH]cc(-c3cccnc3)c2c1C(O)c1nc2cc(C#N)ccc2[nH]1 (single isomer, unassigned) [120 b) (tr = 2.25 min), (+)- or (−)-2-((5,7-dimethyl-3-(pyridin-3-yl)-1H-indol-4-yl)(hydroxy)methyl)-1H-benzo[d]imidazole-5-carbonitrile] | 120
28 | Cc1cc(C)c2[nH]cc(-c3cccnc3)c2c1C(O)c1nc2cc(C#N)ccc2[nH]1 (single isomer, unassigned) [120 b) (tr = 3.20 min), (−) or (+)-2-((5,7-dimethyl-3-(pyridin-3-yl)-1H-indol-4-yl)(hydroxy)methyl)-1H-benzo[d]imidazole-5-carbonitrile] | 29000
29 | Cc1cc(OC(F)F)c(C(C)(O)c2nc3cc(C#N)ccc3[nH]2)c2c(Cl)c[nH]c12 (single isomer, unassigned) [Example 7, (+) or (−)-2-(1-(3-chloro-5-(difluoromethoxy)-7-methyl-1H-indol-4-yl)-1-hydroxyethyl)-1H-benzo[d]imidazole-5-carbonitrile] | 4240
30 | COc1cc(C)c2[nH]cc(Cl)c2c1C(C)(O)c1nc2cc(C#N)ccc2[nH]1 (single isomer, unassigned) [Example 29-A, (−) or (+)-2-(1-(3-Chloro-5-methoxy-7-methyl-1H-indol-4-yl)-1-hydroxyethyl)-1H-benzo[d]imidazole-5-carbonitrile] | 2030
